Measured values from the NIST ThermoML archive (doi:10.1007/s10765-010-0737-5).
Numbers after ± are expanded uncertainties.

Assays:
[1] = Liquid; for viscosity: 101 kPa, Capillary tube (Ostwald / Ubbelohde) method; for mass density: 101.3 kPa
[2] = xn = mol fraction of the nth substance listed; conditions: Liquid, x2 = 0; for viscosity: 101 kPa, Capillary tube (Ostwald / Ubbelohde) method; for mass density: 101.3 kPa

Structure (SMILES) | viscosity ([1]; 283.15 K) [mPa·s] | mass density ([1]; 283.15 K) [kg/m3] | viscosity ([1]; 288.15 K) [mPa·s] | mass density ([1]; 288.15 K) [kg/m3] | viscosity ([1]; 293.15 K) [mPa·s] | mass density ([1]; 293.15 K) [kg/m3] | viscosity ([1]; 298.15 K) [mPa·s] | mass density ([1]; 298.15 K) [kg/m3] | viscosity ([1]; 303.15 K) [mPa·s] | mass density ([1]; 303.15 K) [kg/m3] | viscosity ([1]; 308.15 K) [mPa·s] | mass density ([1]; 308.15 K) [kg/m3] | viscosity ([1]; 313.15 K) [mPa·s] | mass density ([1]; 313.15 K) [kg/m3] | viscosity ([2]; 283.15 K) [mPa·s] | mass density ([2]; 283.15 K) [kg/m3] | viscosity ([2]; 288.15 K) [mPa·s] | mass density ([2]; 288.15 K) [kg/m3] | viscosity ([2]; 293.15 K) [mPa·s] | mass density ([2]; 293.15 K) [kg/m3] | other results
CC(C)(C)Cl [2-chloro-2-methylpropane] | 0.598 ± 0.006 | 855.249 ± 0.67 | 0.5538 ± 0.0056 | 849.243 ± 0.68 | 0.5135 ± 0.0053 | 843.191 ± 0.69 | 0.4768 ± 0.0049 | 837.096 ± 0.71 | 0.4438 ± 0.0047 | 830.958 ± 0.72 | 0.4196 ± 0.0045 | 824.772 ± 0.73 | 0.3904 ± 0.0042 | 818.536 ± 0.74 |  |  |  |  |  |  | 
CCC(C)Cl (stereo unspecified) [2-chlorobutane] | 0.4631 ± 0.0048 | 884.34 ± 0.61 | 0.4365 ± 0.0046 | 878.756 ± 0.62 | 0.4167 ± 0.0044 | 873.13 ± 0.63 | 0.3993 ± 0.0043 | 867.474 ± 0.65 | 0.38 ± 0.0041 | 861.779 ± 0.66 | 0.3615 ± 0.004 | 856.044 ± 0.67 | 0.3443 ± 0.0038 | 850.266 ± 0.68 |  |  |  |  |  |  | 
CC(C)OC(C)C [diisopropyl ether] | 0.3646 ± 0.004 | 733.833 ± 0.92 | 0.3486 ± 0.0039 | 728.692 ± 0.93 | 0.334 ± 0.0037 | 723.509 ± 0.94 | 0.3178 ± 0.0036 | 718.289 ± 0.95 | 0.3001 ± 0.0034 | 713.032 ± 0.96 | 0.2857 ± 0.0033 | 707.727 ± 0.97 | 0.2723 ± 0.0032 | 702.378 ± 0.98 |  |  |  |  |  |  | 
CC(C)OC(C)C [diisopropyl ether] + CC(C)CCl |  |  |  |  |  |  |  |  |  |  |  |  |  |  | 0.3646 ± 0.004 | 733.833 ± 0.92 | 0.3486 ± 0.0039 | 728.692 ± 0.93 | 0.334 ± 0.0037 | 723.509 ± 0.94 | viscosity ([2]; 298.15 K): 0.3178 ± 0.0036 mPa·s; mass density ([2]; 298.15 K): 718.289 ± 0.95 kg/m3; viscosity ([2]; 303.15 K): 0.3001 ± 0.0034 mPa·s; mass density ([2]; 303.15 K): 713.032 ± 0.96 kg/m3; viscosity ([2]; 308.15 K): 0.2857 ± 0.0033 mPa·s; mass density ([2]; 308.15 K): 707.727 ± 0.97 kg/m3; viscosity ([2]; 313.15 K): 0.2723 ± 0.0032 mPa·s; mass density ([2]; 313.15 K): 702.378 ± 0.98 kg/m3
CC(C)OC(C)C [diisopropyl ether] + CCC(C)Cl |  |  |  |  |  |  |  |  |  |  |  |  |  |  | 0.3646 ± 0.004 | 733.833 ± 0.92 | 0.3486 ± 0.0039 | 728.692 ± 0.93 | 0.334 ± 0.0037 | 723.509 ± 0.94 | viscosity ([2]; 298.15 K): 0.3178 ± 0.0036 mPa·s; mass density ([2]; 298.15 K): 718.289 ± 0.95 kg/m3; viscosity ([2]; 303.15 K): 0.3001 ± 0.0034 mPa·s; mass density ([2]; 303.15 K): 713.032 ± 0.96 kg/m3; viscosity ([2]; 308.15 K): 0.2857 ± 0.0033 mPa·s; mass density ([2]; 308.15 K): 707.727 ± 0.97 kg/m3; viscosity ([2]; 313.15 K): 0.2723 ± 0.0032 mPa·s; mass density ([2]; 313.15 K): 702.378 ± 0.98 kg/m3
CCCCCl [1-chlorobutane] | 0.4993 ± 0.0051 | 897.339 ± 0.59 | 0.4701 ± 0.0049 | 891.855 ± 0.6 | 0.4433 ± 0.0047 | 886.335 ± 0.61 | 0.4214 ± 0.0045 | 880.705 ± 0.62 | 0.405 ± 0.0043 | 875.204 ± 0.63 | 0.3885 ± 0.0042 | 869.585 ± 0.64 | 0.3642 ± 0.004 | 863.882 ± 0.65 |  |  |  |  |  |  | 
CC(C)OC(C)C [diisopropyl ether] + CC(C)(C)Cl |  |  |  |  |  |  |  |  |  |  |  |  |  |  | 0.3646 ± 0.004 | 733.833 ± 0.92 | 0.3486 ± 0.0039 | 728.692 ± 0.93 | 0.334 ± 0.0037 | 723.509 ± 0.94 | viscosity ([2]; 298.15 K): 0.3178 ± 0.0036 mPa·s; mass density ([2]; 298.15 K): 718.289 ± 0.95 kg/m3; viscosity ([2]; 303.15 K): 0.3001 ± 0.0034 mPa·s; mass density ([2]; 303.15 K): 713.032 ± 0.96 kg/m3; viscosity ([2]; 308.15 K): 0.2857 ± 0.0033 mPa·s; mass density ([2]; 308.15 K): 707.727 ± 0.97 kg/m3; viscosity ([2]; 313.15 K): 0.2723 ± 0.0032 mPa·s; mass density ([2]; 313.15 K): 702.378 ± 0.98 kg/m3
CC(C)CCl [1-chloro-2-methylpropane] | 0.5155 ± 0.0053 | 888.845 ± 0.6 | 0.4833 ± 0.005 | 883.211 ± 0.61 | 0.454 ± 0.0047 | 877.539 ± 0.63 | 0.4296 ± 0.0045 | 871.533 ± 0.64 | 0.4112 ± 0.0044 | 866.096 ± 0.65 | 0.3921 ± 0.0042 | 860.319 ± 0.66 | 0.3726 ± 0.0041 | 853.902 ± 0.67 |  |  |  |  |  |  | 
CC(C)OC(C)C [diisopropyl ether] + CCCCCl |  |  |  |  |  |  |  |  |  |  |  |  |  |  | 0.3646 ± 0.004 | 733.833 ± 0.92 | 0.3486 ± 0.0039 | 728.692 ± 0.93 | 0.334 ± 0.0037 | 723.509 ± 0.94 | viscosity ([2]; 298.15 K): 0.3178 ± 0.0036 mPa·s; mass density ([2]; 298.15 K): 718.289 ± 0.95 kg/m3; viscosity ([2]; 303.15 K): 0.3001 ± 0.0034 mPa·s; mass density ([2]; 303.15 K): 713.032 ± 0.96 kg/m3; viscosity ([2]; 308.15 K): 0.2857 ± 0.0033 mPa·s; mass density ([2]; 308.15 K): 707.727 ± 0.97 kg/m3; viscosity ([2]; 313.15 K): 0.2723 ± 0.0032 mPa·s; mass density ([2]; 313.15 K): 702.378 ± 0.98 kg/m3
